Reference: patent US20220323406A1, “METHODS AND COMPOSITIONS FOR DIFFERENTIATING STEM CELLS” (Massachusetts Institute of Technology, priority 2019, published 2022)
“Also recorded” adds a separate entry of the source.

Key:
[1] = tested on: Paneth cells in ENR+CD organoids; test: Flow cytometry of 3D-cultured intestinal organoids, Paneth cells (lysozyme-positive, CD24-positive); type: cell-based, mouse; details: 160 nM KPT-8602 or 2 ng/mL Leptomycin B, ENR+CD 6 days
Description: Flow cytometry analysis (3D culture). ISC-enriched organoids cultured in 3D Matrigel with ENRCV media were passaged to 24-well plate in 3D Matrigel with ENRCV. At day zero, media were replaced to ENRCD with or without indicated compounds, and media were replaced every other day. At day six, cells were washed with basal media, and then harvested from Matrigel by mechanical disruption in TrypLE Express (ThermoFisher, 12605010) to remove Matrigel and dissociate organoids to single cells. After vigorous pipetting and incubation at 37° C. for 20 min, dissociated organoids were strained through a 35 μm cell strainer into a tube (Falcon, 352235). […] Cell pellets were resuspended in FACS buffer (2% FBS in PBS), and then transferred to an ultra low-bind 96-well plate (Corning, 7007). Cells were stained with Zombie-violet viability dye (BioLegend, 423107) at 100× for viability staining and/or antibody staining solution. FITC-conjugated antibody for lysozyme (Dako, F0372) and APC-conjugated antibody for CD24 (BioLegend, 138505) were used at 100× dilution. Flow cytometry was performed using an LSR Fortessa (BD; Koch Institute Flow Cytometry Core at MIT). The data were analyzed using FlowJo v10 software.
The results of primary and secondary screening reflect a mixture of potential effects arising from small molecule treatment which may result in increases in total LYZ secretion. This includes contributions from enhanced Paneth cell differentiation, altered Paneth cell activity and changes in total cell number concurrent with differentiation. To better inform how the 6 compounds identified in the screen increased total secreted LYZ, and to isolate only those which enhance Paneth differentiation robustly, Applicants next utilized flow cytometry to measure the changes in Paneth cell representation within the treated organoids. […] Single live cells were selected by several gating strategies and Paneth cells were identified as lysozyme-high, CD24-mid, side scatter-high (SSC-high) (FIG. 27E). […] To evaluate whether the culture media supplements C and D may alter the effects of the 6 hits, Applicants also performed lysozyme assay in the canonical ENR culture condition in 3-D (because Paneth cells exist in an immature state within ENR, Applicants were unable to robustly quantify Paneth cell number via flow cytometry).
Flow cytometry. ISC-enriched organoids in 3D Matrigel culture were passaged to a 48-well plate and induced differentiation for 6 days by ENR+CD media containing DMSO or each drug indicated in the figures. DMSO- or drug-containing media were changed every other day. On day 6, cells were washed twice with basal media, then harvested from Matrigel by the mechanical disruption in TrypLE Express (Thermo, #12605010) to remove Matrigel and dissociate organoids to single cells. After vigorous pipetting and incubation at 37° C. for 15 min, the cell solution was diluted twice with basal media and centrifuged at 300 ref for 3 min. The cell pellet was resuspended in FACS buffer (PBS containing 2% FBS) and replaced into a 96-well Clear Round Bottom Ultra-Low Attachment Microplate (Corning, #7007). The cell solution was centrifuged again at 300 rcf for 3 min at 4° C. to pellet the cells. Cells were stained with Zombie-violet dye (BioLegend, #423113) at 100× for viability staining for 20 min at RT in the dark. After centrifugation for 3 min at 300 rcf, cells were fixed in fixation buffer (FACS buffer containing 1% formaldehyde (Thermo, #28906)) for 15 min on ice in the dark. Cells were centrifuged again for 3 min at 300 rcf and blocked with staining buffer (FACS buffer containing 0.5% Tween20 (Sigma, P2287)) for 15 min at RT in the dark. Pelleted cells by the centrifugation for 3 min at 300 rcf are stained with FITC-conjugated anti-lysozyme antibody (Dako, F0372) and APC-conjugated anti-CD24 antibody (Biolegend, #138505) at 100× for 45 min at RT in the dark.

intestinal organoids = test: Population RNA-sequencing of treated organoids; type: cell-based, mouse; details: ENR+CV, ENR+CD or ENR
Experimental: Population RNA-sequencing. Population RNA-seq was performed using a derivative of the Smart-Seq2 protocol for single cells. In brief, organoid media was aspirated and RLT+BME (Qiagen) was added to each well, and plate shaken for 30 minutes to fully lyse. Lysate was aliquoted into 4 identical fractions and stored at −80° C. until reverse transcription. RNA lysate was thawed and cleaned with a 2.2×SPRI ratio using Agencourt RNAClean XP beads (Beckman Coulter, A63987). RNA-seq was performed on a bulk population of sorted basal cells using Smart-Seq2 chemistry, starting with a 2.2×SPRI ratio cleanup. After oligo-dT priming, Maxima H Minus Reverse Transcriptase (ThermoFisher EP0753) was used to synthesize cDNA with an elongation step at 52° C. before PCR amplification (15 cycles for tissue, 18 cycles for sorted basal cells) using KAPA HiFi PCR Mastermix (Kapa Biosystems KK2602). Sequencing libraries were prepared using the Nextera XT DNA tagmentation kit (Illumina FC-131-1096) with 250 pg input for each sample. Libraries were pooled post-Nextera and cleaned using Agencourt AMPure SPRI beads with successive 0.7× and 0.8× ratio SPRIs and sequenced with an Illumina 75 Cycle NextSeq500/550v2 kit (Illumina FC-404-2005) with loading density at […], with paired end 35 cycle read structure. Samples were sequenced at an average read depth of 8.44 million reads per sample and a total of 96 samples.
Organoid samples were aligned to the Mm10 genome and transcriptome using STAR and RSEM. […] For module scoring with the in vivo Paneth and enteroendocrine cell-defining genes, Applicants used previously published gene sets and computed per sample module scores through the Seurat package.

[2] = tested on: lysozyme (LYZ) in intestinal organoids; test: Western blotting of lysozyme in 3D-cultured intestinal organoids; type: cell-based, mouse; details: ENR+CV, ENR+CD or ENR, 6 days
Description: Western blotting. ISC-enriched organoids cultured in 3D Matrigel with ENRCV media were passaged to 24-well plate in 3D Matrigel with ENRCV. At day zero, media were replaced to ENR or ENRCD with or without indicated compounds, and media were replaced every other day. At day six, cells were harvested from Matrigel by mechanical disruption and suspended in basal media. Cell pellets were lysed with Pierce® IP lysis buffer (ThermoFisher, 87787) containing Halt™ Protease Inhibitor Cocktail, EDTA-Free (ThermoFisher, 87785) after 3-minute centrifuge at 300×g at 4° C. Cell extracts were resolved by NuPAGE® SDS-PAGE Gel system (ThermoFisher) and electroblotted onto polyvinylidene difluoride membranes using Criterion™ Blotter (Biorad). The membranes were blocked with 2% Blotting-Grade Blocker (Biorad, 1706404) in TBS-T (50 mM Tris-HCl, 150 mM NaCl, and 0.1% Tween 20, pH 8.0) and then probed with appropriate antibodies. Detection was performed using ECL Select™ Western Blotting Detection Reagent (Amersham, 45-000-999) and ImageQuant LAS4000 (GE Healthcare).
Western blotting. Organoid-containing gel was homogenized in basal medium and centrifuged at 300 rcf for 3 min. Organoid pellet was lysed with ice-cold Pierce IP Lysis Buffer (Thermo Fisher Scientific, #87787) containing Halt Protease Inhibitor Cocktail, EDTA-Free (Thermo Fisher Scientific, #87785) and incubated on ice for 20 min. The lysate was centrifuged at 17,000 rcf for 10 min, and the supernatant was combined with NuPAGE LDS Sample Buffer (Thermo Fisher Scientific, NP0007). Protein concentration was determined by Pierce 660 nm Protein Assay (Thermo Fisher Scientific, #22660) and normalized to the lowest concentration among each sample set. […] Chemiluminescent signals were detected by LAS4000 (GE Healthcare) using Amersham ECL Select Western Blotting Detection Reagent (GE Healthcare, #45-000-999), and total protein signals were obtained by Odyssey Imaging System (LI-COR Biosciences) using REVERT Total Protein Stain Kit (LI-COR Biosciences, #926-11010).

[3] = Newlands et al, 1996; cited from earlier work
[4] = Roberts et al, 1986; cited from earlier work
ISCs / Paneth cells = details: Hayase et al., 2017; cited from earlier work

Molecule: NC(=O)/C(=C/n1cnc(-c2cc(C(F)(F)F)cc(C(F)(F)F)c2)n1)c1cncnc1 [KPT-8602]
- Paneth cell representation / proportion in organoids [1]: statistically significant increases in Paneth cell representation; also recorded: statistically significant increases in the Paneth cell fraction; also recorded: increased the proportion of PC
- secretory cell gene set scores (Paneth, goblet, EEC) from bulk transcripts (intestinal organoids): increase secretory cells (Paneth, goblet, and EEC)
- LYZ abundance per-mass protein (Western blot) [2]: appreciably increase LYZ abundance

Molecule: CCC(=C/[C@H](C)C/C=C/C(C)=C/[C@@H](C)C(=O)[C@@H](C)[C@H](O)[C@@H](C)C/C(C)=C/C(=O)O)/C=C/[C@@H]1OC(=O)C=C[C@@H]1C [Leptomycin B]
- tolerability in humans [3]: poorly tolerated with marked gastrointestinal toxicity
- Paneth cell representation / proportion in organoids [1]: statistically significant increases in Paneth cell representation; also recorded: statistically significant increases in the Paneth cell fraction
- Paneth cell representation / proportion in organoids ([1]; listed as leptomycin B): increased the proportion of PC
- tolerability in animals [4]: poorly tolerated with marked gastrointestinal toxicity
- LYZ abundance per-mass protein (Western blot) [2]: appreciably increase LYZ abundance

B1: R-spondin1: a potent WNT agonist (protein, UniProt Q2MKA7 21-263, looked up)
R-spondin-1: SRGIKGKRQRRISAEGSQACAKGCELCSEVNGCLKCSPKLFILLERNDIRQVGVCLPSCPPGYFDARNPDMNKCIKCKIEHCEACFSHNFCTKCKEGLYLHKGRCYPACPEGSSAANGTMECSSPAQCEMSEWSPWGPCSKKQQLCGFRRGSEERTRRVLHAPVGDHAACSDTKETRRCTVRRVPCPEGQKRRKGGQGRRENANRNLARKESKEAGAGSRRRKGQQQQQQQGTVGPLTSAGPA
- alpha-defensin secretion and dysbiosis in mice with GvHD (ISCs / Paneth cells): elevate the secretion of alpha-defensins and resolve dysbiosis seen in mice with GvHD
